Source: paper PMC7938888, “Antidepressant drugs act by directly binding to TRKB neurotrophin receptors” (Cell, 2021)

Key:
GFP-TRKB.Y433F = experiment: FRAP of GFP-TRKB.Y433F in dendritic spines of hippocampal neurons; format: cell-based, rat; conditions: BDNF 20 ng/mL, FLX 1 μM, KET 10 μM; 15 min
Procedure: For the fluorescence recovery after photobleaching (FRAP) experiments, E18 rat embryo hippocampal cells were plated onto glass coverslips coated with poly-L-lysine (Sigma-Aldrich) in 4-well cell culture plates at a density of 200.000 cells/well. The cultures were incubated at +37°C in serum-free Neurobasal medium (supplemented with 2% B27, 1% L-glutamine and 1% ampicillin) for approximately 2 weeks (DIV 14-16), renewing half of the growth media weekly. Then, they were transfected with Lipofectamine 2000 (Invitrogen) in order to overexpress GFP-tagged TRKB constructs (TRKB.WT or TRKB.Y433F). The cultures were incubated with the transfection mix (per well: 50ul neurobasal medium, 1ul Lipofectamine 2000, 1ug plasmid DNA) in serum-free media for 1.5 hours, followed by 3x medium washes and returned to the original growth medium after that. The cells were left at +37°C o/n to overexpress the constructs ([Koskinen et al., 2012]). Next day, FRAP was performed with a confocal microscope (Zeiss LSM 710, Carl Zeiss AG) adapted for live cell imaging with a chamber set at +37°C and 5%CO2 (Zeiss Temp Module system, Carl Zeiss AG). Coverslips with the cultured hippocampal neurons were carefully transferred to 35mm Petri dishes with warm HBSS medium without phenol red or serum to avoid sources of background fluorescence. After a 10 minutes adaptation period in the microscope chamber to avoid focus drift caused by temperature fluctuations of the stage and objective, dendritic shafts or spines (spine head diameter = ∼1um) were localized with a 63x/0.90 NA dipping water objective. Picture format was 512x512 pixels. The nominal speed to capture images was set to 9 (pixel dwell 3.15 μseconds, taking approximately 0.5 s to finish a scan), and the pinhole aperture was set to completely open to obtain a strong fluorescent signal ([Koskinen et al., 2012]; [Zheng et al., 2011]). Once a region of interest (ROI) was selected with a circle that contained the whole spine, it was bleached to establish the FRAP baseline. […]

GFP-TRKB = experiment: dSTORM/TIRF of GFP-TRKB clusters on MG87.TRKB cells; format: cell-based, mouse; conditions: BDNF 10 ng/ml, FLX 10 μM, CHOL 20 μM, KET 10 μM; 15 min
Procedure: For direct stochastic optical reconstruction microscopy (dSTORM) MG87.TRKB cells were grown on cell view 35mm dishes with glass bottom (Greiner) coated with poly-L-lysine (Sigma). […] Briefly, cells were fixed 24 hours post transfection with 4% PFA for 20 minutes, washed three times for 5 min with 1x PBS and incubated in blocking buffer (1% BSA, 0.1% gelatin, 5% goat serum, 0.1% Triton X-100 and 0.05% Tween-20 in PBS; all from Sigma) for 1 hour. The primary antibody against GFP (Abcam, #ab290) was diluted 1:100 and incubated overnight at +4°C, while the secondary antibody Alexa Fluor-conjugated goat-anti-rabbit 647 (Invitrogen) was diluted 1:500 and incubated at room temperature for 1 hour. The dishes were stored in +4°C in 1x PBS no longer than 48 hours before imaging.
During imaging, cells were maintained in blinking buffer (10% glucose, 0.07% cysteamine, 0.75 mg/ml glucose oxidase and 0.04 mg/ml catalase in 0.1 M Tris buffer, pH 7.8-8; all reagents from Sigma-Aldrich), which was freshly prepared and changed every hour. Imaging was performed in TIRF mode (TIRF angle 89.3 calibrated with ring-TIRF at least twice per sample) to specifically image the fluorophores at the plasma membrane. A GE DeltaVision OMX SR system (GE Healthcare) equipped with an Apo N 60x/1.49 oil objective and a sCMOS camera was used to acquire the images. The 640 nm diode laser was used at 100% of power to excite the Alexa 647 fluorophores while the 405 nm laser was adjusted until approximately 50% of power in order to maintain the blinking throughout the imaging session. For each cell, 35000 frames were acquired, and the localization map of single fluorophores was reconstructed with SoftWoRx 7.0 software (GE Healthcare). For the localization map, the first 1000 frames approximately were discarded and the reconstruction parameters were maintained identical for all the samples.
Reconstruction parameters: For the localization of all the blinking events in the dataset, the point spread function size factor was set at 1.550 with a local maximum factor of 0.05. Drift correction was adjusted dividing the frames into 20 groups. Tracking of the fluorophores was performed with a maximum localization precision of 100 nm without fiducial markers. The final localization map of the fluorophores identified was built with a reconstruction pixel size of 10 nm and localization precision set at 5 and 100 nm respectively for the minimum and the maximum, and a fluorophore persistence threshold set at 3 frames.
The analysis of the reconstructed images was performed in Fiji. Depending on the size of picture, 5 or 10 representative regions of interest (ROIs) of 2x1 μm were blindly chosen per cell and used for particle analysis of the TRKB-positive clusters. […]

In the case of `CNC1(c2ccccc2Cl)CCCCC1=O` (stereo not shown) [KET, ketamine], the “fluorescence of GFP-TRKB.Y433F in dendritic spines after bleaching” value (“fluorescence of GFP-TRKB.Y433F” below) (GFP-TRKB.Y433F) is reported as “Neither BDNF, FLX, nor KET increased the fluorescence” and the “size of clusters formed by wild-type GFP-TRKB at the plasma membrane” value (from here on “size of clusters formed”) (GFP-TRKB) is reported as “increased the size of clusters”.

In the case of `CNCCC(Oc1ccc(C(F)(F)F)cc1)c1ccccc1` (stereo not shown) [FLX, fluoxetine], the “fluorescence of GFP-TRKB.Y433F” value (GFP-TRKB.Y433F) is reported as “Neither BDNF, FLX, nor KET increased the fluorescence” and the “size of clusters formed” value (GFP-TRKB) is reported as “increased the size of clusters”.

In the case of `CC(C)CCC[C@@H](C)[C@H]1CC[C@H]2[C@@H]3CC=C4C[C@@H](O)CC[C@]4(C)[C@H]3CC[C@]12C` [CHOL, cholesterol], the “size of clusters formed” value (GFP-TRKB) is reported as “increased the size of clusters”.

B1: BDNF: brain-derived neurotrophic factor, TRKB ligand (protein, UniProt P23560 19-247, looked up)
Neurotrophic factor BDNF …: APMKEANIRGQGGLAYPGVRTHGTLESVNGPKAGSRGLTSLADTFEHVIEELLDEDQKVRPNEENNKDADLYTSRVMLSSQVPLEPPLLFLLEEYKNYLDAANMSMRVRRHSDPARRGELSVCDSISEWVTAADKKTAVDMSGGTVTVLEKVPVSKGQLKQYFYETKCNPMGYTKEGCRGIDKRHWNSQCRTTQSYVRALTMDSKKRIGWRFIRIDTSCVCTLTIKRGR
For B1, the “fluorescence of GFP-TRKB.Y433F” value (GFP-TRKB.Y433F) was “Neither BDNF, FLX, nor KET increased the fluorescence” and the “size of clusters formed” value (GFP-TRKB) was “increased the size of clusters”.
